Measured values taken from patent publication US20060069132A1, “Azolecarboxamide herbicides” (priority 2004, published 2006).

What was measured:
wheat cv. Retical = test: Test H safening on wheat by naphthalic anhydride seed treatment, pre-/postemergence; type: in vivo, Triticum aestivum; parameters: key to Response of wheat, Without naphthalic anhydride seed treatment: 0 = no effect, 100 = complete plant death, vs untreated control
Procedure: This test evaluated the safening of compounds of the invention on wheat (Triticum aestivumL.) cv. ‘Retical’ by seed treatment with naphthalic anhydride. Some of the wheat seed was treated with napthalic anhydride as a 1% by weight seed dressing. The wheat seed were planted in pots containing pasteurized Sassafras sandy loam soil. For postemergence testing the plants were grown 8 days to the 2-leaf stage at time of treatment. Preemergence treatments were applied the same day that the seeds were planted. Treatments were applied by spraying the test compounds formulated in a non-phytotoxic solvent mixture, using a flat fan nozzle and a spray volume of 280 L/ha. The preemergence treatments were triply replicated and the results subsequently averaged. The pots were placed on a growth chamber bench using a complete randomized block design for the preemergence test except for the first replicate, which was unrandomized. The plants were grown in the growth chamber and watered as needed with a dilute nutrient solution containing 200 ppm of N. Illumination was provided by fluorescent lamps giving 200-300 μE/m^2/S of photosynthetically active radiation over a 14-hour photoperiod. The temperature was maintained at 23±2° C. during the day and 17±2° C. at night. The effects of the treatments were rated 25 days after preemergence treatment and 14 days after postemergence treatment. The plant response was visually rated in comparison to untreated controls using a scale of 0 to 100, with 0 representing no effect and 100 representing complete plant death. The results for the compounds tested preemergence are listed in Table H1, and the results for the compounds tested postemergence are listed in Table H2.

[1] = test system: corn (maize) cv. Pioneer 33G26; test: Test G safening on corn by naphthalic anhydride seed treatment, preemergence; type: in vivo, Zea mays
Source text: This test evaluated the safening of compounds of the invention on corn (maize; Zea mays L.) cv. ‘Pioneer 33G26’ by seed treatment with naphthalic anhydride (1,8-naphthalic anhydride). All corn seed had been first treated with fludioxonil and metaxyl applied at the manufacturer's recommended rate as per the Pioneer 33G26 label. Some of the corn seed were subsequently also treated with naphthalic anhydride as a 1% by weight seed dressing. The corn seed were planted in pots containing pasteurized Sassafras sandy loam soil, and then treatments were applied preemergence the same day. Treatments were applied by spraying the test compounds formulated in a non-phytotoxic solvent mixture, using a flat fan nozzle and a spray volume of 280 L/ha. The treatments were triply replicated and the results subsequently averaged. The pots were placed on a greenhouse bench using a complete randomized block design except for the first replicate, which was unrandomized. The plants were grown in the greenhouse and watered as needed with a dilute nutrient solution containing 200 ppm of N. Illumination was daylight supplemented by artificial sources to maintaining a photoperiod of 16 hours. The temperature was maintained at 28±2° C. during the day and 23±2° C. at night. The plant response was visually rated 25 days after treatment in comparison to untreated controls using a scale of 0 to 100, with 0 representing no effect and 100 representing complete plant death.

Italian ryegrass = test: Test F pre-/postemergence herbicide test; type: in vivo, Lolium multiflorum
Source text: (§1) Seeds of plant species selected from annual blugrass (Poa annua L.), blackgrass (Alopecurus myosuroides Huds.), catchweed bedstraw (Gallium aparine L.), common chickweed (Stellaria media (L.) Vill./Cyr.), downy bromegrass (Bromus tectorum L.), green foxtail (Setaria viridis (L.) Beauv.), Italian ryegrass (Lolium multiflorum Lam.), kochia (Kochia scoparia (L.). Schrad.), lambsquarters (Chenopodium album L.), littleseed canarygrass (Phalaris minor Retz.), pigweed (Amaranthus retroflexus L.), Russian thistle (Salsola kali L. ssp. Ruthenica (Iljin) Soo), wild buckwheat (Polygonum convolvulus L.), wild mustard (Sinapis arvensis L.), wild oat (Avena fatua L.), windgrass (Apera spica-venti (L.) Beauv.), winter barley (Hordeum vulgare L.), and wheat (Triticum aestivum L.) were planted and treated preemergence with test chemicals formulated in a non-phytotoxic solvent mixture which included a surfactant.
(§2) At the same time, plants selected from these crop and weed species were treated with postemergence applications of some of the test chemicals formulated in the same manner. Plants ranged in height from 2 to 18 cm (1- to 4-leaf stage) for postemergence treatments. Treated plants and controls were maintained in a greenhouse for 12 to 14 days, after which time all species were compared to controls and visually evaluated. Plant response ratings, summarized in Table F, are based on a scale of 0 to 100 where 0 is no effect and 100 is complete control. A dash (-) response means no test result.

green foxtail = test: Test F pre-/postemergence herbicide test; type: in vivo, Setaria viridis
Source text: as §1, §2

catchweed bedstraw = test: Test F pre-/postemergence herbicide test; type: in vivo, Gallium aparine
Source text: as §1, §2

windgrass = test: Test F pre-/postemergence herbicide test; type: in vivo, Apera spica-venti; settings: 125 g ai/ha
Source text: as §1
as §2, with “Plant response ratings, summarized in Table F, are based on a scale of 0 to 100 where 0 is no effect and 100 is complete control. A dash (-) response means no test result.” left out

CCNC(=O)c1ccc(F)c(NC(=O)c2cc(C(C)(C)C)nn2CC)c1 [Compound 2, 3-(1,1-dimethylethyl)-1-ethyl-N-[5-[(ethylamino)carbonyl]-2-fluorophenyl]-1H-pyrazole-5-carboxamide]
Response of wheat, With 1% naphthalic anhydride seed treatment (wheat cv. Retical; postemergence, 62 g a.i./ha): 30
Response of wheat, Without naphthalic anhydride seed treatment (wheat cv. Retical; postemergence, 62 g a.i./ha): 60
Response of wheat, With 1% naphthalic anhydride seed treatment (wheat cv. Retical; postemergence, 125 g a.i./ha): 65
Response of wheat, Without naphthalic anhydride seed treatment (wheat cv. Retical; postemergence, 125 g a.i./ha): 75
Response of wheat, With 1% naphthalic anhydride seed treatment (wheat cv. Retical; preemergence, 62 g a.i./ha): 50
Response of wheat, Without naphthalic anhydride seed treatment (wheat cv. Retical; preemergence, 62 g a.i./ha): 62
Response of wheat, With 1% naphthalic anhydride seed treatment (wheat cv. Retical; preemergence, 125 g a.i./ha): 72
Response of wheat, Without naphthalic anhydride seed treatment (wheat cv. Retical; preemergence, 125 g a.i./ha): 82
Response of corn, With 1% naphthalic anhydride seed treatment ([1]; 62 g a.i./ha): 50
Response of corn, Without naphthalic anhydride seed treatment ([1]; 62 g a.i./ha): 65
Response of corn, With 1% naphthalic anhydride seed treatment ([1]; 125 g a.i./ha): 55
Response of corn, Without naphthalic anhydride seed treatment ([1]; 125 g a.i./ha): 72
Response of corn, With 1% naphthalic anhydride seed treatment ([1]; 250 g a.i./ha): 68
Response of corn, Without naphthalic anhydride seed treatment ([1]; 250 g a.i./ha): 78
Response of corn, With 1% naphthalic anhydride seed treatment ([1]; 500 g a.i./ha): 72
Response of corn, Without naphthalic anhydride seed treatment ([1]; 500 g a.i./ha): 85

CCn1nc(C(C)(C)C)cc1C(=O)Nc1cccc(C(N)=O)n1 [Compound 162, 6-[[[3-(1,1-dimethylethyl)-1-ethyl-1H-pyrazol-5-yl]carbonyl]amino]-2-pyridinecarboxamide]
Plant response rating (0-100), Ryegrass, Italian (Italian ryegrass; Postemergence, 62 g ai/ha): 70
Plant response rating (0-100), Ryegrass, Italian (Italian ryegrass; Postemergence, 125 g ai/ha): 80
Plant response rating (0-100), Ryegrass, Italian (Italian ryegrass; Postemergence, 250 g ai/ha): 90
Plant response rating (0-100), Ryegrass, Italian (Italian ryegrass; Postemergence, 500 g ai/ha): 100
Plant response rating (0-100), Ryegrass, Italian (Italian ryegrass; Preemergence, 62 g ai/ha): 100
Plant response rating (0-100), Ryegrass, Italian (Italian ryegrass; Preemergence, 125 g ai/ha): 100
Plant response rating (0-100), Ryegrass, Italian (Italian ryegrass; Preemergence, 250 g ai/ha): 100
Plant response rating (0-100), Ryegrass, Italian (Italian ryegrass; Preemergence, 500 g ai/ha): 100
Plant response rating (0-100), Foxtail, Green (green foxtail; Postemergence, 62 g ai/ha): 50
Plant response rating (0-100), Foxtail, Green (green foxtail; Postemergence, 125 g ai/ha): 50
Plant response rating (0-100), Foxtail, Green (green foxtail; Postemergence, 250 g ai/ha): 60
Plant response rating (0-100), Foxtail, Green (green foxtail; Postemergence, 500 g ai/ha): 100
Plant response rating (0-100), Foxtail, Green (green foxtail; Preemergence, 62 g ai/ha): 70
Plant response rating (0-100), Foxtail, Green (green foxtail; Preemergence, 125 g ai/ha): 100
Plant response rating (0-100), Foxtail, Green (green foxtail; Preemergence, 250 g ai/ha): 100
Plant response rating (0-100), Foxtail, Green (green foxtail; Preemergence, 500 g ai/ha): 100
Response of wheat, With 1% naphthalic anhydride seed treatment (wheat cv. Retical; postemergence, 62 g a.i./ha): 5
Response of wheat, Without naphthalic anhydride seed treatment (wheat cv. Retical; postemergence, 62 g a.i./ha): 5
Response of wheat, With 1% naphthalic anhydride seed treatment (wheat cv. Retical; postemergence, 125 g a.i./ha): 30
Response of wheat, Without naphthalic anhydride seed treatment (wheat cv. Retical; postemergence, 125 g a.i./ha): 70
Response of wheat, With 1% naphthalic anhydride seed treatment (wheat cv. Retical; preemergence, 62 g a.i./ha): 47
Response of wheat, Without naphthalic anhydride seed treatment (wheat cv. Retical; preemergence, 62 g a.i./ha): 60
Response of wheat, With 1% naphthalic anhydride seed treatment (wheat cv. Retical; preemergence, 125 g a.i./ha): 62
Response of wheat, Without naphthalic anhydride seed treatment (wheat cv. Retical; preemergence, 125 g a.i./ha): 98
Response of wheat, With 1% naphthalic anhydride seed treatment (wheat cv. Retical; preemergence, 250 g a.i./ha): 96
Response of wheat, Without naphthalic anhydride seed treatment (wheat cv. Retical; preemergence, 250 g a.i./ha): 98
Response of corn, With 1% naphthalic anhydride seed treatment ([1]; 62 g a.i./ha): 0
Response of corn, Without naphthalic anhydride seed treatment ([1]; 62 g a.i./ha): 15
Response of corn, With 1% naphthalic anhydride seed treatment ([1]; 125 g a.i./ha): 25
Response of corn, Without naphthalic anhydride seed treatment ([1]; 125 g a.i./ha): 30
Response of corn, With 1% naphthalic anhydride seed treatment ([1]; 250 g a.i./ha): 60
Response of corn, Without naphthalic anhydride seed treatment ([1]; 250 g a.i./ha): 68
Response of corn, With 1% naphthalic anhydride seed treatment ([1]; 500 g a.i./ha): 63
Response of corn, Without naphthalic anhydride seed treatment ([1]; 500 g a.i./ha): 85
Plant response rating (0-100), Galium (catchweed bedstraw; Preemergence, 62 g ai/ha): 60
Plant response rating (0-100), Galium (catchweed bedstraw; Preemergence, 125 g ai/ha): 70
Plant response rating (0-100), Galium (catchweed bedstraw; Preemergence, 250 g ai/ha): 100
Plant response rating (0-100), Galium (catchweed bedstraw; Preemergence, 500 g ai/ha): 100

CCc1nn(C(C)(C)C)cc1C(=O)Nc1cc(C(=O)N(CC)CC)ccc1F [Compound 223]
Plant response rating (0-100), Ryegrass, Italian (Italian ryegrass; Postemergence, 125 g ai/ha): 45
Plant response rating (0-100), Ryegrass, Italian (Italian ryegrass; Preemergence, 125 g ai/ha): 65
Plant response rating (0-100), Foxtail, Green (green foxtail; Postemergence, 125 g ai/ha): 60
Plant response rating (0-100), Foxtail, Green (green foxtail; Preemergence, 125 g ai/ha): 55
Plant response rating (0-100), Galium (catchweed bedstraw; Postemergence, 125 g ai/ha): 60
Plant response rating (0-100), Galium (catchweed bedstraw; Preemergence, 125 g ai/ha): 50
Plant response rating (0-100), Windgrass (windgrass; Postemergence): 50
Plant response rating (0-100), Windgrass (windgrass; Preemergence): 100
